Results as given in patent US9464071B2 (priority 2010, dated 2016).
Several values for one entry are separate records, joined by “and”; a condition that tells them apart may be missing. Equal values may be shown once. Where a name gives a salt, the structure may show the parent alone.

Row | Structure (SMILES) | melting point
1 | COc1cc(OC)cc(N(CCCN2CCC(F)(F)C2)c2ccc3ncc(-c4cnn(C)c4)nc3c2)c1 [Compound 602] | 158.84 °C
2 | COc1cc(OC)cc(N(CCCO)c2ccc3ncc(-c4cnn(C5CCCCO5)c4)nc3c2)c1 (stereo not drawn) | 168.25 °C
3 | COc1cc(OC)cc(N(CCCN)c2ccc3ncc(-c4cnn(C)c4)nc3c2)c1 [Compound 93, N-(3,5-Dimethoxyphenyl)-N-[3-(1-methyl-1H-pyrazol-4-yl)quinoxalin-6-yl]propane-1,3-diamine] | 175.51 °C and 178 °C
4 | COc1cc(OC)cc(N(c2ccc3ncc(-c4cnn(C)c4)nc3c2)C(C)(C)C#Cc2nccc(OC)n2)c1 [Compound 806] | 182 °C
5 | COc1cc(OCCO)cc(N(CC2CC2)c2ccc3ncc(-c4cnn(CCO)c4)nc3c2)c1 (as salt: HCl) [Compound 131, 2-[4-(7-{(Cyclopropylmethyl)[3-(2-hydroxyethoxy)-5-methoxyphenyl]amino}quinoxalin-2-yl)-1H-pyrazol-1-yl]ethanol] | 183.2 °C
6 | COc1cc(OC)cc(N(CC#Cc2cc(C(N)=O)ccn2)c2ccc3ncc(-c4cnn(C)c4)nc3c2)c1 | 204 °C
7 | CNCCN(c1cc(OC)cc(OC)c1)c1ccc2ncc(-c3cnn(C)c3)nc2c1 | 180 to 182 °C and 181 °C
8 | COc1cc(OC)cc(N(CC#CCO)c2ccc3ncc(-c4cnn(C)c4)nc3c2)c1 | 157 °C and 156 °C
9 | COC(=O)c1ccnc(C#CCN(c2cc(OC)cc(OC)c2)c2ccc3ncc(-c4cnn(C)c4)nc3c2)n1 | 178 °C
10 | COc1cc(OC)cc(N(CCCN2CC(F)(F)C2)c2ccc3ncc(-c4cnn(C)c4)nc3c2)c1 [Compound 377] | 112.31 °C
11 | COc1cc(OC)cc(N(CC2CNCCN2)c2ccc3ncc(-c4cnn(C)c4)nc3c2)c1 (stereo not drawn) | 167 °C
12 | COc1cc(O)cc(N(CCN)c2ccc3ncc(-c4cnn(C)c4)nc3c2)c1 | 186 °C
13 | COc1cc(F)cc(N(CCN)c2ccc3ncc(-c4cnn(C)c4)nc3c2)c1 [Compound 488] | 96.65 °C
14 | COc1cc(OC)cc(N(CCNC(C)C)c2ccc3ncc(-c4cnn(CCCN5CCN(CCO)CC5)c4)nc3c2)c1 (as salt: HCl) [Compound 644] | 96 °C
15 | CNC(=O)c1cc(OC)cc(N(CC2CC2)c2ccc3ncc(-c4cn[nH]c4)nc3c2)c1 [Compound 311] | 262.42 °C
16 | COc1cc(F)cc(N(CCO)c2ccc3ncc(-c4cnn(CCO)c4)nc3c2)c1 [Compound 315] | 139 °C
17 | COc1cc(OC)cc(N(CCN2CCN(C3CCN(C(C)=O)CC3)CC2)c2ccc3ncc(-c4cnn(C)c4)nc3c2)c1 [Compound 583] | 136.49 °C
18 | COc1cc(OC)cc(N(CCC#N)c2ccc3ncc(-c4cnn(C)c4)nc3c2)c1 [Compound 122] | 202.94 °C
19 | COc1cc(OC)cc(N(CCN2CCOCC2)c2ccc3ncc(-c4cnn(C)c4)nc3c2)c1 [Compound 299] | 201 °C
20 | COc1cc(OC)cc(N(CC2CC2)c2ccc3ncc(-c4cnn(CC(=O)NCCO)c4)nc3c2)c1 | 167.45 °C
21 | COc1cc(OC)cc(N(CC(=O)Nc2nccc(OC)n2)c2ccc3ncc(-c4cnn(C)c4)nc3c2)c1 | 241 °C
22 | CNC(=O)Cn1cc(-c2cnc3ccc(N(CCCO)c4cc(OC)cc(OC)c4)cc3n2)cn1 [Compound 313] | 176 °C and 176.49 °C
23 | COc1cc(OC)cc(N(CCNC(C)C)c2ccc3ncc(-c4cnn(CC5CCOCC5)c4)nc3c2)c1 (as salt: HCl) | 166 °C

Row | Structure (SMILES) | melting point
24 | COc1cc(OC)cc(N(CCCNCC(F)(F)F)c2ccc3ncc(-c4cnn(C)c4)nc3c2)c1 | 123.12 °C and 126 °C
25 | COc1cc(OC)cc(N(Cc2ncccn2)c2ccc3ncc(-c4cnn(C)c4)nc3c2)c1 [Compound 812] | 170 °C
26 | COc1cc(OC)cc(N(CCCN2CCC(F)(F)C2)c2ccc3ncc(-c4cn[nH]c4)nc3c2)c1 (as salt: HCl) | 215.29 °C
27 | CNCCN(c1cc(OC)cc(OC)c1)c1ccc2ncc(-c3cn[nH]c3)nc2c1 | 193.59 °C
28 | COc1cc(OC)cc(N(CCCNCC(F)F)c2ccc3ncc(-c4cnn(C)c4)nc3c2)c1 [Compound 717] | 125 °C
29 | CCS(=O)(=O)NCCN(c1cc(OC)cc(OC)c1)c1ccc2ncc(-c3cnn(C)c3)nc2c1 [Compound 335] | 122.79 °C
30 | COc1cc(OC)cc(N(CC2CC2)c2ccc3ncc(-c4cnn(CCCN5CCOCC5)c4)nc3c2)c1 | 123.16 °C
31 | COc1cc(OC)cc(N(CCN2C[C@H](C)C[C@@H](C)C2)c2ccc3ncc(-c4cnn(C)c4)nc3c2)c1 (as salt: HCl) [Compound 40] | 80 °C
32 | COc1cc(OCCO)cc(N(CC2CC2)c2ccc3ncc(-c4cnn(CCS(C)(=O)=O)c4)nc3c2)c1 | 80 °C
33 | COc1cc(OC)cc(N(CCN2C(=O)c3ccccc3C2=O)c2ccc3ncc(-c4cnn(C)c4)nc3c2)c1 | 215.88 °C
34 | COc1cc(OC)cc(N(CCCNS(=O)(=O)N(C)C)c2ccc3ncc(-c4cnn(C)c4)nc3c2)c1 [Compound 316] | 158.73 °C
35 | COc1cc(OC)cc(N(Cc2cc[nH]n2)c2ccc3ncc(-c4cnn(C)c4)nc3c2)c1 (as salt: HCl) | 203 °C
36 | COc1cc(OCCO)cc(N(CC2CC2)c2ccc3ncc(-c4cnn(C)c4)nc3c2)c1 [Compound 24] | 80 °C
37 | COc1cc(OC)cc(N(CC2CN(Cc3ccccc3)CCN2Cc2ccccc2)c2ccc3ncc(-c4cnn(C)c4)nc3c2)c1 (stereo not drawn) | 148 °C
38 | COc1cc(OC)cc(N(CCc2nnn[nH]2)c2ccc3ncc(-c4cnn(C)c4)nc3c2)c1 | 196 °C and 195.95 °C
39 | COc1ccc(OC)c(N(CCN)c2ccc3ncc(-c4cn[nH]c4)nc3c2)c1 [Compound 438] | 140.67 °C
40 | COc1cc(OC)cc(N(CC2CC2)c2ccc3ncc(-c4cnn(C(C)(C)C(=O)N5CCNCC5)c4)nc3c2)c1 | 127.97 °C
41 | COc1cc(OC)cc(N(CC2CC2)c2ccc3ncc(-c4cnn(C(C)(C)C(=O)NCCO)c4)nc3c2)c1 | 149.27 °C
42 | COc1cc(OC)cc(N(Cc2cc3ncccc3n2C)c2ccc3ncc(-c4cnn(C)c4)nc3c2)c1 | 241 °C
43 | COc1cc(OC)cc(N(CC2CN(Cc3ccccc3)CCO2)c2ccc3ncc(-c4cnn(C)c4)nc3c2)c1 (stereo not drawn) | 134 °C
44 | COc1cc(OC)cc(N(CCN2C[C@H](C)C[C@H](C)C2)c2ccc3ncc(-c4cnn(C)c4)nc3c2)c1 [Compound 39] | 80 °C
45 | CNc1cccc(CN(c2cc(OC)cc(OC)c2)c2ccc3ncc(-c4cnn(C)c4)nc3c2)n1 | 181 °C and 180 °C
46 | COc1cc(OC)cc(N(Cc2nccn2C)c2ccc3ncc(-c4cnn(C)c4)nc3c2)c1 [Compound 101] | 186 °C

Row | Structure (SMILES) | melting point
47 | COc1cc(OC)cc(N(CC2CC2)c2ccc3ncc(-c4cnn(CC(C)(C)O)c4)nc3c2)c1 | 159.08 °C and 159 °C
48 | COc1cc(OC)cc(N(CC#Cc2nccs2)c2ccc3ncc(-c4cnn(C)c4)nc3c2)c1 | 167 °C
49 | COc1cc(OC)cc(N(CCNCC(O)C(F)(F)F)c2ccc3ncc(-c4cnn(C)c4)nc3c2)c1 (stereo not drawn) | 123 °C
50 | COc1cc(OC)cc(N(CCNS(C)(=O)=O)c2ccc3ncc(-c4cnn(C)c4)nc3c2)c1 [Compound 262] | 130.64 °C
51 | CNC(=O)Cn1cc(-c2cnc3ccc(N(CC4CC4)c4cc(OC)cc(OC)c4)cc3n2)cn1 | 170.82 °C
52 | COc1cc(OC)cc(N(CCO)c2ccc3ncc(-c4cnn(CCCN)c4)nc3c2)c1 [Compound 238] | 133.66 °C
53 | COc1cc(OC)cc(N(CCN2CCN(CCO)CC2)c2ccc3ncc(-c4cnn(C)c4)nc3c2)c1 [Compound 528] | 110.16 °C
54 | COc1cc(OC)cc(N(CCCNCC(N)=O)c2ccc3ncc(-c4cnn(C)c4)nc3c2)c1 [Compound 641] | 155 °C
55 | COc1cc(OC)cc(N(CC2CC2)c2ccc3ncc(-c4cnn(S(C)(=O)=O)c4)nc3c2)c1 | 207.88 °C
56 | COc1cc(OC)cc(N(CCC(C)(C)O)c2ccc3ncc(-c4cnn(C)c4)nc3c2)c1 [Compound 141, 4-{(3,5-Dimethoxyphenyl)[3-(1-methyl-1H-pyrazol-4-yl)quinoxalin-6-yl]amino}-2-methylbutan-2-ol] | 150 °C
57 | COc1cc(OC)cc(N(C[C@@H](O)CO)c2ccc3ncc(-c4cnn(C)c4)nc3c2)c1 (single isomer, unassigned) [Compound 97] | 187.39 °C and 188 °C
58 | COc1ccc(N(CC2CC2)c2ccc3ncc(-c4cnn(C)c4)nc3c2)cc1OC | 190 °C
59 | COc1cc(OC)cc(N(CCN2CCC(N(C)C)C2)c2ccc3ncc(-c4cnn(C)c4)nc3c2)c1 (stereo not drawn) [Compound 456] | 143.58 °C
60 | COc1cc(OC)cc(N(CCNCCC#N)c2ccc3ncc(-c4cnn(C)c4)nc3c2)c1 [Compound 140, 3-[(2-{(3,5-Dimethoxyphenyl)[3-(1-methyl-1H-pyrazol-4-yl)quinoxalin-6-yl]amino}ethyl)amino]propanenitrile] | 123.19 °C
61 | COc1ccnc(C#CCN(c2ccc3ncc(-c4cnn(C)c4)nc3c2)c2c(Cl)c(OC)cc(OC)c2Cl)n1 | 130 °C
62 | COc1cc(OC)cc(N(CCn2cccc2)c2ccc3ncc(-c4cnn(C)c4)nc3c2)c1 (as salt: HCl) | 130 °C
63 | COc1cc(OC)cc(N(C[C@@H](O)CN2CC[C@H](C#N)C2)c2ccc3ncc(-c4cnn(C)c4)nc3c2)c1 [Compound 526] | 234.8 °C
64 | COc1cc(OC)cc(N(CC2CC2)c2ccc3ncc(-c4cnn(CC(=O)N5CCC(O)C5)c4)nc3c2)c1 (stereo not drawn) | 203.4 °C and 203.41 °C
65 | COc1cc(OC)cc(N(c2ccc3ncc(-c4cnn(C)c4)nc3c2)C2COC2)c1 | 160.14 °C and 164 °C
66 | [2H]C([2H])([2H])Oc1cc(OC([2H])([2H])[2H])cc(N(CCCNCC(F)(F)F)c2ccc3ncc(-c4cnn(C)c4)nc3c2)c1 | 127 °C
67 | COc1cc(OC)cc(N(CCCc2nccc(O)n2)c2ccc3ncc(-c4cnn(C)c4)nc3c2)c1 [Compound 663] | 200 °C
68 | CNCCN(c1cc(F)cc(OC)c1)c1ccc2ncc(-c3cnn(C)c3)nc2c1 [Compound 510] | 70 °C
69 | CNCC(O)CN(c1cc(OC)cc(OC)c1)c1ccc2ncc(-c3cnn(C)c3)nc2c1 (stereo not drawn) (as salt: HCl) | 224 °C
